We go through five compounds from US10280167B2, “Purine derivatives for the treatment of viral infections” (JANSSEN SCIENCES IRELAND UC, priority 2011, dated 2019).

T1 sequence (Q9NYK1 27-1049): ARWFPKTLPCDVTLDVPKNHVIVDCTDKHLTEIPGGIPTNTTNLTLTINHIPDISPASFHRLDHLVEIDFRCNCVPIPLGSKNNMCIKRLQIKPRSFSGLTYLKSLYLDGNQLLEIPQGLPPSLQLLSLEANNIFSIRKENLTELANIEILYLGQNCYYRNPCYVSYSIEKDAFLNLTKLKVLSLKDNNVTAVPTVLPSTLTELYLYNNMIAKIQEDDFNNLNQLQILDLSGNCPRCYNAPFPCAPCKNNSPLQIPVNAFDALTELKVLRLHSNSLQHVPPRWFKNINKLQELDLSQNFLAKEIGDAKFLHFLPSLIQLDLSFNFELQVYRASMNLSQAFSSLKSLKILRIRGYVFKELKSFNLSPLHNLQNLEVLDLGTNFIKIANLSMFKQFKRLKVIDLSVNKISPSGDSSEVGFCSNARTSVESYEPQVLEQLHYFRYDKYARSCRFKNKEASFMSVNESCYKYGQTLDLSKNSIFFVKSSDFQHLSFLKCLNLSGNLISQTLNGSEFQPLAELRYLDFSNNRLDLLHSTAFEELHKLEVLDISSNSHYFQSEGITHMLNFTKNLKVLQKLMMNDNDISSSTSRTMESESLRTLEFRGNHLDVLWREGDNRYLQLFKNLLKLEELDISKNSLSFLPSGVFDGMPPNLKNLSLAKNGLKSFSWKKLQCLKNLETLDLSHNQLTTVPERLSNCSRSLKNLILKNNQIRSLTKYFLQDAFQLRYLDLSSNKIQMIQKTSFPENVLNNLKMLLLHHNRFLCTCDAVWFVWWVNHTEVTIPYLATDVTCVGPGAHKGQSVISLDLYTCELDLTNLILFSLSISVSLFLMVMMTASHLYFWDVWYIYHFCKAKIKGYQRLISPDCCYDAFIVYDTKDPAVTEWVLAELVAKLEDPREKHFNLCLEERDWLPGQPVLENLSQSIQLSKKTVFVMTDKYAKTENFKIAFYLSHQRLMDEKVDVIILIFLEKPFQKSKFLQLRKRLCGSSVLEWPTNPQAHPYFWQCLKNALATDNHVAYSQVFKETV

The first experiment has as its target T1, human TLR7 (Homo sapiens (Human), UniProt Q9NYK1). Briefly: Reporter assay for TLR7 activity, HEK293 transiently transfected with wild type TLR7 and NFκB-luc. It counts as cell-based. To be noted: lowest effective concentration; 24 h transfection. The procedure: (§1) Reporter Assays for Assessment of TLR7 Activity (24 h)
(§2) The ability of compounds to activate human TLR7 was assessed in a cellular reporter assay using HEK293 cells transiently transfected with a TLR7 or TLR8 expression vector and NFκB-luc reporter construct. In one instance the TLR expression construct expresses the respective wild type sequence or a mutant sequence comprising a deletion in the second leucine-rich repeat (dIRR2) of the TLR.
(§3) Briefly, HEK293 cells were grown in culture medium (DMEM supplemented with 10% FCS and 2 mM Glutamine). For transfection of cells in 10 cm dishes, cells were detached with Trypsin-EDTA, transfected with a mix of CMV-TLR7 or TLR8 plasmid (750 ng), NFκB-luc plasmid (375 ng) and a transfection reagent and incubated 24 hours or 48 hours respectively at 37° C. in a humidified 5% CO2 atmosphere. Transfected cells were then detached with Trypsin-EDTA, washed in PBS and resuspended in medium to a density of 1.67×10^5 cells/mL. Thirty microliters of cells were then dispensed into each well in 384-well plates, where 10 μL of compound in 4% DMSO was already present. Following 6 hours incubation at 37° C., 5% CO2, the luciferase activity was determined by adding 15 μl of Steady Lite Plus substrate (Perkin Elmer) to each well and readout performed on a ViewLux ultraHTS microplate imager (Perkin Elmer). Dose response curves were generated from measurements performed in quadruplicates. Lowest effective concentrations (LEC) values, defined as the concentration that induces an effect which is at least two fold above the standard deviation of the assay, were determined for each compound. Compound toxicity was determined in parallel using a similar dilution series of compound with 30 μL per well of cells transfected with the CMV-TLR7 construct alone (1.67×10^5 cells/mL), in 384-well plates. Cell viability was measured after 6 hours incubation at 37° C., 5% CO2 by adding 15 μL of ATP lite (Perkin Elmer) per well and reading on a ViewLux ultraHTS microplate imager (Perkin Elmer). Data was reported as CC50.
For orientation: A reporter such as luciferase makes a cellular process visible.
Take `Nc1nc(-c2cncnc2)nc2c1[nH]c(=O)n2Cc1ccccc1` [Compound 15]: the “TLR7-wt_LEC 24 h” value was over 24.59 µM.

Take `Nc1nc(-c2cn[nH]c2)nc2c1[nH]c(=O)n2Cc1ccccc1` [Compound 19]: the “TLR7-wt_LEC 24 h” value was over 24.59 µM.

With `Nc1nc(-c2ccc[nH]2)nc2c1[nH]c(=O)n2Cc1ccccc1` [Compound 18], the “TLR7-wt_LEC 24 h” value is over 24.59 µM.

With `Nc1nc(-c2nc(-c3ccccc3)c[nH]2)nc2c1[nH]c(=O)n2Cc1ccccc1` [Compound 2], the “TLR7-wt_LEC 24 h” value amounted to 4.72 µM.

Another experiment concerns human TLR7 dIRR2 mutant. The experiment is described as follows: Reporter assay for TLR7 activity, HEK293 transfected with mutant TLR7 (dIRR2 deletion) and NFκB-luc. To be noted: lowest effective concentration; 24 h transfection. It counts as cell-based. The protocol:
as §1, §2, §3
As for `Nc1nc(-c2cncnc2)nc2c1[nH]c(=O)n2Cc1ccccc1` [Compound 15], the “TLR7-dIRR2_LEC 24 h” value came out at 10.57 µM.

For `Nc1nc(-c2cn[nH]c2)nc2c1[nH]c(=O)n2Cc1ccccc1` [Compound 19], the “TLR7-dIRR2_LEC 24 h” value came to 13.31 µM.

As for `Nc1nc(-c2ccc[nH]2)nc2c1[nH]c(=O)n2Cc1ccccc1` [Compound 18], the “TLR7-dIRR2_LEC 24 h” value came to 3.23 µM.

On to `Nc1nc(-c2nc(-c3ccccc3)c[nH]2)nc2c1[nH]c(=O)n2Cc1ccccc1` [Compound 2], for which the “TLR7-dIRR2_LEC 24 h” value was 1.2 µM.

On to `CCc1[nH]c(-c2nc(N)c3[nH]c(=O)n(Cc4ccccc4)c3n2)nc1C1CC1` [Compound 6], for which the “TLR7-dIRR2_LEC 24 h” value was determined as 0.66 µM.

In another experiment the test system is Huh-7 luc/neo HCV replicon cells with conditioned media from PBMC. Briefly: Interferon production in human PBMC (PBMC-HUH7_EC50), HCV replicon readout with conditioned media. Type of experiment: cell-based. To be noted: Homo sapiens, Huh-7; concentration applied to PBMCs giving 50% reduction of replicon luciferase activity. The protocol:
Measurement of Interferon Production in Human PBMC (PBMC-HUH7_EC50)
Activation of human TLR7 results in robust production of interferon by plasmacytoid dendritic cells present in human blood. The potential of compounds to induce interferon was evaluated by looking at the antiviral activity in the HCV replicon system upon incubation with conditioned media from peripheral blood mononuclear cells (PBMC). The HCV replicon assay is based on a bicistronic expression construct, as described by Lohmann et al. (Science (1999) 285: 110-113; Journal of Virology (2003) 77: 3007-15 3019) with modifications described by Krieger et al. (Journal of Virology (2001) 75: 4614-4624). The assay utilized the stably transfected cell line Huh-7 luc/neo harboring an RNA encoding a bicistronic expression construct comprising the wild type NS3-NS5B regions of HCV type 1b translated from an Internal Ribosome Entry Site (IRES) from encephalomyocarditis virus (EMCV), preceded by a reporter gene (Firefly-luciferase) and a selectable marker gene (neoR, neomycine phosphotransferase). The construct is flanked by 5′ and 3′ NTRs (non-translated regions) from HCV type 1b. Continued culture of the replicon cells in the presence of G418 (neoR) is dependent on the replication of the HCV RNA. The stably transfected replicon cells that replicate HCV RNA autonomously and to high levels, encoding inter alia luciferase, were used for profiling of the conditioned cell culture media. Briefly, PBMCs were prepared from buffy coats of at least two donors using a standard Ficoll centrifugation protocol. Isolated PBMCs were resuspended in RPMI medium supplemented with 10% human AB serum and 2×10^5 cells/well were dispensed into 384-well plates containing compounds (70 μL total volume). After overnight incubation, […] was transferred to 384-well plates containing 2.2×10^3 replicon cells/well in 30 μL (plated the day before). Following 24 hours of incubation, replication was measured by assaying luciferase activity using 40 μL/well Steady Lite Plus substrate (Perkin Elmer) and measured with ViewLux ultraHTS microplate imager (Perkin Elmer). The inhibitory activity of each compound on the Huh7-luc/neo cells were reported as EC50 values, defined as the compound concentration applied to the PBMCs resulting in a 50% reduction of luciferase activity which in turn indicates the degree of replication of the replicon RNA on transfer of a defined amount of PBMC culture medium. Recombinant interferon α-2a (Roferon-A) was used as a standard control compound.
By EC50 is commonly meant the concentration at which the effect is half-maximal. Higher therefore signals a less potent agent. Consider `Nc1nc(-c2cncnc2)nc2c1[nH]c(=O)n2Cc1ccccc1` [Compound 15], for which the EC50 is 16900 nM.

On to `Nc1nc(-c2cn[nH]c2)nc2c1[nH]c(=O)n2Cc1ccccc1` [Compound 19], for which the EC50 was found to be 12400 nM.

In the case of `Nc1nc(-c2ccc[nH]2)nc2c1[nH]c(=O)n2Cc1ccccc1` [Compound 18], the 50% effective concentration (EC50) was determined as 2580 nM.

Regarding `Nc1nc(-c2nc(-c3ccccc3)c[nH]2)nc2c1[nH]c(=O)n2Cc1ccccc1` [Compound 2], it took 531 nM to reach a half-maximal effect (EC50).

As for `CCc1[nH]c(-c2nc(N)c3[nH]c(=O)n(Cc4ccccc4)c3n2)nc1C1CC1` [Compound 6], the midpoint of the response, the EC50, lay at 53 nM.

For the next experiment, the system named is HEK-ISRE-luc cells with conditioned media from PBMC. The experiment is described as follows: Interferon production in human PBMC (PBMC HEK-ISRE-luc LEC). It counts as cell-based. To be noted: Homo sapiens, PBMC; lowest effective concentration; read-out: PBMC HEK-ISRE-luc (LEC). The procedure:
Measurement of Interferon Production in Human PBMC (PBMC HEK-ISRE-Luc LEC)
Activation of human TLR7 results in robust production of interferon by plasmacytoid dendritic cells present in human blood. The potential of compounds to induce interferon was evaluated by determination of interferon in the conditioned media from peripheral blood mononuclear cells (PBMC). The presence of interferon in the samples was determined, using an interferon reporter cell line stably expressing an interferon-stimulated responsive elements (ISRE)-luc reporter construct. The ISRE element with sequence GAAACTGAAACT (SEQ ID NO: 1) is highly responsive to the STAT1-STAT2-IRF9 transcription factor, which becomes activated upon binding of IFN-I to the IFN receptor. Briefly, PBMCs were prepared from buffy coats of at least two donors using a standard Ficoll centrifugation protocol. Isolated PBMCs were resuspended in RPMI medium supplemented with 10% human AB serum and 2×10^5 cells/well were dispensed into 384-well plates containing compounds (70 μL total volume). After overnight incubation of the PBMCs with the compounds, 10 μL of supernatant was transferred to 384-well plates containing 5×10^3 HEK-ISRE-luc cells/well in 30 μL (plated the day before). Following 24 hours of incubation, activation of the ISRE elements was measured by assaying luciferase activity using 40 μL/well Steady Lite Plus substrate (Perkin Elmer) and measured with ViewLux ultraHTS microplate imager (Perkin Elmer). The stimulating activity of each compound on the HEK-ISRE-luc cells was reported as LEC. The LEC in turn indicates the degree of ISRE activation on transfer of a defined amount of PBMC culture medium.
Recombinant interferon alfa-2a (Roferon-A) was used as a standard control compound.
Turning to `CCc1[nH]c(-c2nc(N)c3[nH]c(=O)n(Cc4ccccc4)c3n2)nc1C1CC1` [Compound 6], the minimal effective concentration was 0.04 µM.

Another experiment deals with TLR8. Briefly: Reporter assay HEK293 TLR8-NFκB-luc. Type of experiment: cell-based. To be noted: greater than the highest tested concentration. The protocol:
as §2
Briefly, HEK293 cells were grown in culture medium (DMEM supplemented with 10% FCS and 2 mM Glutamine). […] Following 6 hours incubation at 37° C., 5% CO2, the luciferase activity was determined by adding 15 μl of Steady Lite Plus substrate (Perkin Elmer) to each well and readout performed on a ViewLux ultraHTS microplate imager (Perkin Elmer). […] Lowest effective concentrations (LEC) values, defined as the concentration that induces an effect which is at least two fold above the standard deviation of the assay, were determined for each compound. Compound toxicity was determined in parallel using a similar dilution series of compound with 30 μL per well of cells transfected with the CMV-TLR7 construct alone (1.67×10^5 cells/mL), in 384-well plates. Cell viability was measured after 6 hours incubation at 37° C., 5% CO2 by adding 15 μL of ATP lite (Perkin Elmer) per well and reading on a ViewLux ultraHTS microplate imager (Perkin Elmer). […]
As to `CCc1[nH]c(-c2nc(N)c3[nH]c(=O)n(Cc4ccccc4)c3n2)nc1C1CC1` [Compound 6], the “LEC on HEK293 TLR8-NFκB-luc” value is over 10 µM.

In the next experiment the test system is HEK293 NFκB-luc. Briefly: Reporter assay HEK293 NFκB-luc. Type of experiment: cell-based. As to conditions: greater than the highest tested concentration.
As to `CCc1[nH]c(-c2nc(N)c3[nH]c(=O)n(Cc4ccccc4)c3n2)nc1C1CC1` [Compound 6], the “LEC on HEK293 NFκB-luc” value was over 10 µM.

A further experiment concerns the target T1, human TLR7. Briefly: Reporter assay for TLR7 activity, HEK293 transiently transfected with wild type TLR7 and NFκB-luc. It counts as cell-based. To be noted: lowest effective concentration; 48 h transfection.
Consider `Nc1nc(-c2cncnc2)nc2c1[nH]c(=O)n2Cc1ccccc1` [Compound 15], for which the “TLR7-wt_LEC 48 h” value was over 25 µM.

For the compound `Nc1nc(-c2cn[nH]c2)nc2c1[nH]c(=O)n2Cc1ccccc1` [Compound 19], the “TLR7-wt_LEC 48 h” value was over 25 µM.

As for `Nc1nc(-c2ccc[nH]2)nc2c1[nH]c(=O)n2Cc1ccccc1` [Compound 18], the “TLR7-wt_LEC 48 h” value turned out to be 20.31 µM.

Regarding `CCc1[nH]c(-c2nc(N)c3[nH]c(=O)n(Cc4ccccc4)c3n2)nc1C1CC1` [Compound 6], the “TLR7-wt_LEC 48 h” value was 6.32 µM.

A further experiment relates to human TLR7 dIRR2 mutant. Briefly: Reporter assay for TLR7 activity, HEK293 transfected with mutant TLR7 (dIRR2 deletion) and NFκB-luc. It counts as cell-based. To be noted: lowest effective concentration; 48 h transfection.
In the case of `Nc1nc(-c2cncnc2)nc2c1[nH]c(=O)n2Cc1ccccc1` [Compound 15], the “TLR7-dIRR2_LEC 48 h” value was found to be 9.75 µM.

Take `Nc1nc(-c2cn[nH]c2)nc2c1[nH]c(=O)n2Cc1ccccc1` [Compound 19]: the “TLR7-dIRR2_LEC 48 h” value worked out at 16.6 µM.

Turning to `Nc1nc(-c2ccc[nH]2)nc2c1[nH]c(=O)n2Cc1ccccc1` [Compound 18], the “TLR7-dIRR2_LEC 48 h” value amounted to 3.81 µM.

Take `CCc1[nH]c(-c2nc(N)c3[nH]c(=O)n(Cc4ccccc4)c3n2)nc1C1CC1` [Compound 6]: the “TLR7-dIRR2_LEC 48 h” value amounted to 0.34 µM.
